Test results reported in patent publication US7598278B2, “Administration of pyridinedicarboxylic acid compounds for stimulating or inducing the growth of human keratinous fibers and/or arresting their loss” (L'Oreal, priority 2002, dated 2009).
Like-named read-outs stand apart in the source and are kept apart here.

What was measured:
proline hydroxylase = details: K. Majamaa et al., Eur. J. Biochem., 138, 1984, 239-245; cited from earlier work
[1] = system: men exhibiting androgenetic alopecia of stage III to V according to the Hamilton classification; details: for No. of hairs/per cm^2 (DE): mean ± standard deviation
Procedure: Pyridine-2,4-dicarboxylic acid was tested in the form of the Na double salt formulated at a concentration of 5% in an aqueous/alcoholic lotion.
The evaluation of the effectiveness of the treatments was carried out by determining the total pilar density of hairs per cm^2 (DE) using the phototrichogram technique. This examination was carried out before treatment (M0) and after 3 months of treatment (M3).

[2] = system: men exhibiting androgenetic alopecia of stage III to V according to the Hamilton classification; experiment: 1st study: in vivo activity, total pilar density of hairs per cm^2 (DE) by phototrichogram; set-up: species or system human; details: for No. of hairs/per cm^2 (DE): mean ± standard deviation
Description: It was studied at a concentration of 2%, formulated in a ternary lotion based on propylene glycol, ethanol and water.

| Structure (SMILES) | inhibition of proline hydroxylase (in words) (proline hydroxylase) | hair loss (decrease in total density) compared with placebo areas, times smaller ([1]; 5% lotion, 3 months, versus placebo areas) [times] | No. of hairs/per cm^2 (DE) ([1]; M0, before treatment, scalp area to receive 5% aqueous/alcoholic lotion, 22 men) [hairs/per cm^2] | No. of hairs/per cm^2 (DE) ([1]; M3, after 3 months, 5% aqueous/alcoholic lotion, 30 μl once daily, 5 days per week, topical on scalp) [hairs/per cm^2] | DE variation (%) ([1]; mean of the variation at M3 with respect to M0, 5% lotion, 30 μl once daily, 5 days per week, 3 months) | change of total density of treated areas (in words) ([2]; 2% lotion, 3 months, placebo areas do not change) | No. of hairs/per cm^2 (DE) ([2]; M0, before treatment, scalp area to receive 2% lotion (propylene glycol, ethanol, water), 25 men) [hairs/per cm^2] | No. of hairs/per cm^2 (DE) ([2]; M3, after 3 months, 2% lotion, 30 μl once daily, 5 days per week, topical on scalp) [hairs/per cm^2] | DE variation (%) ([2]; M3 with respect to M0, 2% lotion, 30 μl once daily, 5 days per week, 3 months) |
| --- | --- | --- | --- | --- | --- | --- | --- | --- | --- |
| O=C(O)c1ccc(C(=O)O)nc1 [pyridine-2,5-dicarboxylic acids, pyridine-2,5-dicarboxylic acid] | very weak inhibitors |  |  |  |  |  |  |  |  |
| O=C([O-])c1ccnc(C(=O)[O-])c1.[Na+].[Na+] [Na disalt of Pyridine-2,4-dicarboxylic acid] |  | 4 | 249 ± 50 | 246 ± 50 | −0.97 |  |  |  |  |
| O=C(O)c1ccnc(C(=O)O)c1 [Pyridine-2,4-dicarboxylic acid] | very weak inhibitors |  |  |  |  | increase in the total density | 213 ± 45 | 224 ± 53 | 4.4 |
